Source: PubChem BioAssay AID179 (DTP/NCI, 2004)
Activity calls are given as the source filed them.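 Rule for the calls: active = compounds giving half or more protection of infected cells from virus-caused growth loss, again on retest; inactive = the rest.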 Where a SMILES comes first, the peptide text is derived from it. Bridges are numbered along the chain shown (N, C = ends). Roman numbers before positions name the chains, in order.

Test system: CEM cells HIV-1 protection, formazan growth assay
Experiment: NCI AIDS Antiviral Assay
Conditions: for IC50: measured here: growth of uninfected CEM cells
How it was run: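 Protection of CEM cells against HIV-1 was scored from cell growth (soluble formazan) across five concentrations, with parallel uninfected cells. Lack of protection may reflect toxicity.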

Row | SMILES | EC50 | IC50 | outcome
1 | COC(=O)[C@H](Cc1ccc(O)cc1)NC(=O)[C@H](Cc1ccc(O)cc1)NC(=O)OC(C)(C)C (HELM PEPTIDE1{[CC(C)(C)OC(=O)[*:2]].Y.Y.[CO[*:1]]}$$$$V2.0) | > 200 µM | 93.3 µM | –
2 | O=C(CCC(=O)Nc1ccc(Cl)c(Cl)c1)CC(=O)c1ccc2ccccc2c1 | – | – | inactive
3 | CSC(=Nc1ccc(Br)cc1)NC(=O)c1cc([N+](=O)[O-])cc([N+](=O)[O-])c1 | > 200 µM | 34.7 µM | –
4 | Cc1cccc([B-]23OCC[N+]2(CNC(=O)C2=C(O)C4(O)C(=O)C5=C(O)c6c(O)cccc6C(C)(O)C5CC4C(N(C)C)C2=O)CCO3)c1 (stereo not given) | > 38.9 µM | > 38.9 µM | –
5 | CC(C)CN(CC(=O)Nc1cccc(Cl)c1)CC(C)C | > 200 µM | 141 µM | –
6 | c1cc(C2=NCCO2)c2ccsc2c1 | > 200 µM | 155 µM | –
7 | Oc1ccc(Br)cc1C=Nc1c(NC2CCCCC2)oc2ccc(Br)cc12 | – | – | inactive
8 | CC(C)(C)N=c1n(C(C)(C)C)oc(=O)n1-c1ccccc1 | > 50.1 µM | > 50.1 µM | –
9 | CC(C)CC(NC(=O)C(Cc1ccc(O)cc1)NC(=O)C(CO)NC(=O)C(N)CCC(N)=O)C(=O)NCC(=O)O (stereo not given) (H-QSYLG-OH; configuration not given here) | – | – | inactive
10 | CN(C)S(=O)(=O)c1c(N)ncn1C | > 1230 µM | > 1230 µM | –
11 | CCCCCCCCCCCCCC(=O)CSCCNC(=O)CCNC(=O)[C@@H](O)C(C)(C)COP(=O)(O)OP(=O)(O)OCC1OC(n2cnc3c(N)ncnc32)C(O)C1OP(=O)(O)O (stereo not given in full) | – | – | inactive
12 | CNC(=S)SSC(=S)NCCNC(=S)SSC(=S)NC | – | – | inactive
13 | c1ccc(C2=NC3(CCCCC3)N=C2c2ccccc2)cc1 | > 200 µM | 135 µM | –
14 | CCOC(=O)C(C[Si](C)(C)C)P(=O)(OCC)OCC (stereo not given) | > 575 µM | 537 µM | –
15 | CN(C)CCCNC(=O)c1cc(NC(=O)c2cc(NC(=O)[C@@H]3C[C@H]3C(=O)Nc3cc(C(=O)Nc4cc(C(=O)NCCCN(C)C)n(C)c4)n(C)c3)cn2C)cn1C | – | – | inactive
16 | Cc1cn(C2CC(N=[N+]=[N-])C(COC(=O)CCCCCCCCCCOc3ccc(I)cc3)O2)c(=O)[nH]c1=O (stereo not given) | 0.117 µM | 17.8 µM | –
17 | Cc1ccccc1NC(=O)C(=O)CC(=O)c1sc(Nc2ccccc2[N+](=O)[O-])nc1C | > 200 µM | > 200 µM | –
18 | CS/C(c1ccccc1)=[N+](/C)[O-] | > 813 µM | 589 µM | –
19 | CSc1n[nH]c2n[nH]c(C)c12 | > 200 µM | 105 µM | –
20 | NC1=Nc2ccccc2Sc2nc3ccccc3n21 | > 200 µM | 8.71 µM | –
21 | CC(C)C(NC(=O)C(N)CSSCC(N)C(=O)NC(C(=O)O)C(C)C)C(=O)O (stereo not drawn) (I: H-Cys-Val-OH / II: H-Cys-Val-OH; disulfide I:1-II:1; configuration not given here) | – | – | inactive
22 | O=c1[nH]c2ccc([N+](=O)[O-])cc2nc1/C(=N/Nc1ccccc1)C(O)c1ccco1 (stereo not given) | > 437 µM | 275 µM | –

Row | SMILES | EC50 | IC50 | outcome
23 | COc1ccc(-c2c(C(C)=O)c(-c3ccccc3)n(C3OC(COC(C)=O)C(OC(C)=O)C(OC(C)=O)C3OC(C)=O)c(=S)c2C#N)cc1 (stereo not given) | > 200 µM | 123 µM | –
24 | COc1ccc2c3c1OC1C4(CCC5C(C2)N(CC2CC2)CCC351)OCCO4 (stereo not given) | > 129 µM | > 129 µM | –
25 | O=C(O)CSc1n[nH]c(-c2ccc(O)cc2)n1 | > 1000 µM | 977 µM | –
26 | O=S1(=O)N2CN3CN(C2)CN1C3 | – | – | inactive
27 | NC1=NC2=c3ccccc3=C(c3cnccn3)C2(c2cnccn2)c2ccccc21 (stereo not given) | > 93.3 µM | 70.8 µM | –
28 | CC1(C)COC(c2ccccc2-c2ccccc2)=N1 | > 200 µM | 132 µM | –
29 | CC(=O)c1nc2ccccc2n1C(C)C(=O)c1ccccc1 (stereo not given) | > 200 µM | 11.2 µM | –
30 | CC(C)c1cccc(C(C)C)c1NC(=O)CCC(=O)NN | > 324 µM | > 324 µM | –
31 | Cc1ccc(N(C(=O)Nc2ccccc2)C2=NCC(C)S2)cc1C (stereo not given) | > 200 µM | > 200 µM | –
32 | O=[N+]([O-])C(=C/C1CCCCC1)/C(=C\C1CCCCC1)[N+](=O)[O-] | > 200 µM | 4.57 µM | –
33 | COc1ccc(-c2c(C#N)c(N)n(C3OCC(O)C(O)C3O)c(=S)c2C#N)cc1 (stereo not given) | > 200 µM | 117 µM | –
34 | CC(=O)Oc1cc(OC(C)=O)c2c(c1)OC(c1ccc(OC(C)=O)c(OC(C)=O)c1)CC2=O (stereo not given) | > 57.5 µM | > 57.5 µM | –
35 | O=C(c1ccc([N+](=O)[O-])cc1)N1CCCC1 | > 200 µM | > 200 µM | –
36 | CN(C)c1ccc(/C=C(\NC(=O)c2ccccc2)c2nc3ccc4c(c3[nH]2)C(=O)c2ccccc2C4=O)cc1 | – | – | inactive
37 | O=C1c2cccc3cc([N+](=O)[O-])cc(c23)C(=O)N1CCCN1CCN(CCCNc2ccc3ncn4c5ccccc5c(=O)c2c34)CC1 | > 0.00501 µM | 0.0049 µM | –
38 | CCOP(=O)(OCC)C(Nc1ccc(Br)cc1)c1cccc([N+](=O)[O-])c1 (stereo not given) | – | – | inactive
39 | NC(=O)c1ccc[n+](C2=C([O-])c3ccccc3C(=O)/C2=N\S(=O)(=O)c2ccccc2)c1 | > 200 µM | 11.2 µM | –
40 | CCOC(=O)CCC(NC(=O)C(CCC(=O)OCC)NC(=O)C(Cc1ccc([N+](=O)[O-])cc1)NC(C)=O)C(=O)NNC(=O)OC(C)(C)C (stereo not given) | > 200 µM | > 200 µM | –
41 | CC1CC(=O)c2c(cc3c(-c4c(O)cc(O)c5c(O)c6c(cc45)OC(C)CC6=O)c(O)cc(O)c3c2O)O1 (stereo not given) | – | – | inactive
42 | Cc1ccc2c(c1)CC1(Cc3cccc(C)c3C1=O)C2=O (stereo not given) | > 200 µM | > 200 µM | –
43 | CC1(C)C=[N+]([O-])C(C)(C)N1O | > 200 µM | > 200 µM | –
